Experimental data as given in paper PMC6891286, “Towards the Development of an In vivo Chemical Probe for Cyclin G Associated Kinase (GAK)” (Molecules, 2019).

What was measured:
[1] = metabolite identification in mouse liver microsomes
Experimental: After centrifugation, the supernatant was subjected to analysis by LCMS, and structures of metabolites were assigned on the basis of their molecular weight and fragmentation pattern.
Compounds were incubated at a concentration of 10 µM with mouse liver microsomes in the presence of an excess of NADPH.
1.1. General Numbering of Metabolites
The metabolites are numbered according to their retention times in the gradient LC-MS analysis in positive […]
ion mode. […] The M number increases […]
consecutively for metabolites with increasing retention time.
To avoid confusion, labelled retention times of a metabolite peak in different injections are the same, which may lead to mismatch between labelled retention time and actual retention time.
General Strategy for Metabolite Identification
The vehicle control and study samples were injected into LC-MS with gradient elution using a Q1 scan method. Searching for potential metabolites was then performed using LightSight software (Applied Biosystems/MDS Sciex) by comparing a total ion current chromatogram of Q1 scan from a study sample with a chromatogram from the corresponding vehicle control sample. The study sample was then injected again to obtain the product ion spectra of potential metabolites using product ion scan methods. The fragmentation patterns of the potential metabolites were then compared to the fragmentation of the parent compound to elucidate the structures of the metabolites.
The assignment of fragments is shown
2.2. Identification of Metabolites in Mouse Liver Microsomal Incubation

GAK [2] = molecular target: T1, GAK (Homo sapiens, UniProt O14976); settings: TR-FRET assay; read-out: Biochemical GAK Ki; cited from earlier work
T1 sequence (O14976 1-1311): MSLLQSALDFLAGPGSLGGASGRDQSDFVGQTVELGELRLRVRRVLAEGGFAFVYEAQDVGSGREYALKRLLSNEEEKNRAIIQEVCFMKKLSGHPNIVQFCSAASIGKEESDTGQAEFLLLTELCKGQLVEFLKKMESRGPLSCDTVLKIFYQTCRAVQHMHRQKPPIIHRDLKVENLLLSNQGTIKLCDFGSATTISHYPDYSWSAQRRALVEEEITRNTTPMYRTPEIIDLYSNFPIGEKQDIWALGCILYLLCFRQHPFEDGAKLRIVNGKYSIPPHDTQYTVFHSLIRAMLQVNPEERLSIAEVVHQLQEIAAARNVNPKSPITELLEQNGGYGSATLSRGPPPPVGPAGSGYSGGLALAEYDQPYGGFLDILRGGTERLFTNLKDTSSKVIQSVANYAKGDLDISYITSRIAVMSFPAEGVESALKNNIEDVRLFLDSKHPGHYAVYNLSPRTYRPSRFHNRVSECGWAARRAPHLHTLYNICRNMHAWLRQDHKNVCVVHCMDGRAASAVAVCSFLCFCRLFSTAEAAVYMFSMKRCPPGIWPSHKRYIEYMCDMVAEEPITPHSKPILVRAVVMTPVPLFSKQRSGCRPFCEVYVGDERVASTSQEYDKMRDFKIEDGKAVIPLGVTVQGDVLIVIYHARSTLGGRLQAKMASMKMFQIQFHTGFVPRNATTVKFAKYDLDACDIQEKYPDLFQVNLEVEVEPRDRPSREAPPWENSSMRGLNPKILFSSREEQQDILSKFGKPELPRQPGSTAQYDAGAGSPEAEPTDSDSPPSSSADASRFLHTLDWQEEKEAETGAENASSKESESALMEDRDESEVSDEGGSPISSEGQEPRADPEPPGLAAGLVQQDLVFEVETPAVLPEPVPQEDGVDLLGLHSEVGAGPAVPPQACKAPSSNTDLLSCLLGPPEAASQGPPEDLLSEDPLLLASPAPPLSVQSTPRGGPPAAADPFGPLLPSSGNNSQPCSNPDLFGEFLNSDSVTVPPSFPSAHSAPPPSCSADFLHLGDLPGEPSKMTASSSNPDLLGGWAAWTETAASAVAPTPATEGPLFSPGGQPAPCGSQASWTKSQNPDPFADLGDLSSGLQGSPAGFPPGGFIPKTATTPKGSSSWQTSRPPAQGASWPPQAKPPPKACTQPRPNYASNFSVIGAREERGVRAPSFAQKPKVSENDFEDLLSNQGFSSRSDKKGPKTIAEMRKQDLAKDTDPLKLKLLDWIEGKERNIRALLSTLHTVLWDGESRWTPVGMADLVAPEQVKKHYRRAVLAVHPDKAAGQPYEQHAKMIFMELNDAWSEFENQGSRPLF

GAK [3] = molecular target: T1, GAK; assay: live cell NanoBRET target engagement assay; format: cell-based; settings: nanoBRET; mean average, n = 2
BRAF = molecular target: T2, BRAF (Homo sapiens, UniProt P15056); assay: KINOMEscan; format: binding; settings: 35 at 1 µM; read-out: % inhibition
T2 construct: purchased Eurofins DiscoverX (KINOMEscan)
Experimental: (§1) KinomeScan Assay on 35 was performed as previously described at EuroFins DiscoverX (Fremont, CA, USA).

CAMK1B = molecular target: T3, CAMK1B (Homo sapiens, UniProt Q6P2M8); assay: KINOMEscan; format: binding; settings: 35 at 1 µM; read-out: % inhibition
T3 construct: purchased Eurofins DiscoverX (KINOMEscan)
Experimental: as §1

EIF2AK1 = molecular target: T4, EIF2AK1 (Homo sapiens, UniProt Q9BQI3); assay: KINOMEscan; format: binding; settings: 35 at 1 µM; read-out: % inhibition
T4 construct: purchased Eurofins DiscoverX (KINOMEscan)
Experimental: as §1

ERBB3 = molecular target: T5, ERBB3 (Homo sapiens, UniProt P21860); assay: KINOMEscan; format: binding; settings: 35 at 1 µM; read-out: % inhibition
T5 construct: purchased Eurofins DiscoverX (KINOMEscan)
Experimental: as §1

IKK-alpha = molecular target: T6, IKK-alpha (Homo sapiens, UniProt O15111); assay: KINOMEscan; format: binding; settings: 35 at 1 µM; read-out: % inhibition
T6 construct: purchased Eurofins DiscoverX (KINOMEscan)
Experimental: as §1

IRAK3 = molecular target: T7, IRAK3 (Homo sapiens, UniProt Q9Y616); assay: KINOMEscan; format: binding; settings: 35 at 1 µM; read-out: % inhibition
T7 construct: purchased Eurofins DiscoverX (KINOMEscan)
Experimental: as §1

MEK6 = molecular target: T8, MEK6 (Homo sapiens, UniProt P52564); assay: KINOMEscan; format: binding; settings: 35 at 1 µM; read-out: % inhibition
T8 construct: purchased Eurofins DiscoverX (KINOMEscan)
Experimental: as §1

PIP5K1C = molecular target: T9, PIP5K1C (Homo sapiens, UniProt O60331); assay: KINOMEscan; format: binding; settings: 35 at 1 µM; read-out: % inhibition
T9 construct: purchased Eurofins DiscoverX (KINOMEscan)
Experimental: as §1

PRKCQ = molecular target: T10, PRKCQ (Homo sapiens, UniProt Q04759); assay: KINOMEscan; format: binding; settings: 35 at 1 µM; read-out: % inhibition
T10 construct: purchased Eurofins DiscoverX (KINOMEscan)
Experimental: as §1

[4] = molecular target: T11, RPS6KA4(Kin.Dom.2-C-terminal) (Homo sapiens, UniProt O75676); assay: KINOMEscan; format: binding; settings: 35 at 1 µM; read-out: % inhibition
T11 construct: RPS6KA4(Kin.Dom.2-C-terminal); purchased Eurofins DiscoverX (KINOMEscan)
Experimental: as §1

AAK1 = AAK1 (Homo sapiens, UniProt Q2M2I8); assay: KINOMEscan; format: binding; parameters: purchased Eurofins DiscoverX (KINOMEscan); settings: 35 at 1 µM; read-out: % inhibition
Experimental: as §1

GAK [5] = molecular target: T1, GAK; assay: KINOMEscan; format: binding; parameters: purchased Eurofins DiscoverX (KINOMEscan)
Experimental: as §1

STK16 = STK16 (Homo sapiens, UniProt O75716); assay: KINOMEscan; format: binding; parameters: purchased Eurofins DiscoverX (KINOMEscan); settings: 35 at 1 µM; read-out: % inhibition
Experimental: as §1

T5 sequence (P21860 20-1342): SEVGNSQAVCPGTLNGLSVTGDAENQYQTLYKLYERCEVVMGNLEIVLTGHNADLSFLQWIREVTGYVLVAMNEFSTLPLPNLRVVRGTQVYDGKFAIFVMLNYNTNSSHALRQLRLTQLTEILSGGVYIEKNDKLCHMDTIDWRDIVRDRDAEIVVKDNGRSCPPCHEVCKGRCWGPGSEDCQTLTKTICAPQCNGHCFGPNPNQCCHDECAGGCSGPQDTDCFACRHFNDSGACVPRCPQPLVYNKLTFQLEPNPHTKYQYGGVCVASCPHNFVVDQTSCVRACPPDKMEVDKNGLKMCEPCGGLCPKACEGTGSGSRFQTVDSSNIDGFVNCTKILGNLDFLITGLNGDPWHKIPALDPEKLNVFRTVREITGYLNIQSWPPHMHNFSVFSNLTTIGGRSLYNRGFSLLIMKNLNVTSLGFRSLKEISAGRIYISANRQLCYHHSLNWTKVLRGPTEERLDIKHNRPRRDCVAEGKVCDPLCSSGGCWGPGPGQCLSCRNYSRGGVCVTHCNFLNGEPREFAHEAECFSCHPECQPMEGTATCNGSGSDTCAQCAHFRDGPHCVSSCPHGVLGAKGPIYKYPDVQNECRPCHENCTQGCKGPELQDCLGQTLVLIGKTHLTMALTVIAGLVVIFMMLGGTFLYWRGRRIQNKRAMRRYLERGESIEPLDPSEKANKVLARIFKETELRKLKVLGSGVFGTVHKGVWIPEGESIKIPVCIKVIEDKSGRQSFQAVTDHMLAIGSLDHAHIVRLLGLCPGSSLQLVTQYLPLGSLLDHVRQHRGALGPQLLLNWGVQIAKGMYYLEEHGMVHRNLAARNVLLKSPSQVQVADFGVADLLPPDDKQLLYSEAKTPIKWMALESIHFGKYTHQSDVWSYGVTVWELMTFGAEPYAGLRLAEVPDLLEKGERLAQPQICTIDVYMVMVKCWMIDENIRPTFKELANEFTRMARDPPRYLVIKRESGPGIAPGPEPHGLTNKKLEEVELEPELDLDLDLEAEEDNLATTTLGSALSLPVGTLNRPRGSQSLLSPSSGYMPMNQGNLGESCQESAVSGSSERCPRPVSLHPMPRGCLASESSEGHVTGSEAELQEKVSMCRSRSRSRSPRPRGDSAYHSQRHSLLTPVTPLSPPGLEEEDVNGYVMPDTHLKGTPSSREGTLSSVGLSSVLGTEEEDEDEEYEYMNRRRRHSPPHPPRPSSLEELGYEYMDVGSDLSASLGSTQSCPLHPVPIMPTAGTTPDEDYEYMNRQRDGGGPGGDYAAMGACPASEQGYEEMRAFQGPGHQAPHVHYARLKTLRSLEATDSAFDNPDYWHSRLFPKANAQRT
T7 sequence (Q9Y616 whole entry): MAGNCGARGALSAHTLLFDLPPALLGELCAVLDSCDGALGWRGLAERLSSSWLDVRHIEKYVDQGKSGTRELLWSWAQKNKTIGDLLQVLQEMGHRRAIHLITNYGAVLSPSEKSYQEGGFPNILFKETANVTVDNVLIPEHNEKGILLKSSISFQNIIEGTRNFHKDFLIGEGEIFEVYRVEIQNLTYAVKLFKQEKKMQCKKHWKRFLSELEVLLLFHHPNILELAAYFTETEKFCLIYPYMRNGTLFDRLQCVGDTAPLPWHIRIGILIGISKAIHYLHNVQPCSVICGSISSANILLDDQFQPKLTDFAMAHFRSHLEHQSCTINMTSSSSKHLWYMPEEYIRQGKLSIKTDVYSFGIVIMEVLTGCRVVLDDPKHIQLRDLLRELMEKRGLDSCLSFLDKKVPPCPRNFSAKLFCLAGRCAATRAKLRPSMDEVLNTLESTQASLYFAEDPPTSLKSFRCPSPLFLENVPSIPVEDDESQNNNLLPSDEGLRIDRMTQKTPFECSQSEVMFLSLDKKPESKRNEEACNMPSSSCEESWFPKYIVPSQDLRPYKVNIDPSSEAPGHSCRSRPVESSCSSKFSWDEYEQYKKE
T11 sequence (O75676 372-772 limits assumed): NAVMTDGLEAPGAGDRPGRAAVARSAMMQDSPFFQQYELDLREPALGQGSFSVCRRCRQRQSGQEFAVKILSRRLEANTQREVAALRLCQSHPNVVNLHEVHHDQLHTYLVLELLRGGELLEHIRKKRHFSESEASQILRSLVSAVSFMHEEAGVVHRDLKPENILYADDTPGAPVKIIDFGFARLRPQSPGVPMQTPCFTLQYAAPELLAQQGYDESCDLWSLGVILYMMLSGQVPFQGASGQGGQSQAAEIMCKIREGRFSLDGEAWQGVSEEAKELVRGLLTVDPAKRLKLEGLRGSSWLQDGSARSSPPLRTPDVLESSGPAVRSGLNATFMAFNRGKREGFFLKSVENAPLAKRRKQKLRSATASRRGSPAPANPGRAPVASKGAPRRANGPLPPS
T4 sequence (Q9BQI3 whole entry): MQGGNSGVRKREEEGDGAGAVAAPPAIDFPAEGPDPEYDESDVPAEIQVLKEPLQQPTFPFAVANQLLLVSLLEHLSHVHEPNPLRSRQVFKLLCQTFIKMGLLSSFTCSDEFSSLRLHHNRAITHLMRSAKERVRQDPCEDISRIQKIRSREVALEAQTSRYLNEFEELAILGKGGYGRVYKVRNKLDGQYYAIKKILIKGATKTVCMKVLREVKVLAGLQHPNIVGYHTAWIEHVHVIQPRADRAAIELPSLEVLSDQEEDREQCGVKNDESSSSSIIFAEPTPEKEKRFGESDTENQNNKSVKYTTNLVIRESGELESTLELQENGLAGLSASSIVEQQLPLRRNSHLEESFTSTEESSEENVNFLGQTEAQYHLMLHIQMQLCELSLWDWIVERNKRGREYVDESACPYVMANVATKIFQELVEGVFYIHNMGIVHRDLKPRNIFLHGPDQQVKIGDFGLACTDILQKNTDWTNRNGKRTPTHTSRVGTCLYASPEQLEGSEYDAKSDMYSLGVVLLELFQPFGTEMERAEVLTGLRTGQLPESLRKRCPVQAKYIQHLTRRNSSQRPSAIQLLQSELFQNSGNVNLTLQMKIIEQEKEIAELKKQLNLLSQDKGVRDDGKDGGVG
T8 sequence (P52564 whole entry): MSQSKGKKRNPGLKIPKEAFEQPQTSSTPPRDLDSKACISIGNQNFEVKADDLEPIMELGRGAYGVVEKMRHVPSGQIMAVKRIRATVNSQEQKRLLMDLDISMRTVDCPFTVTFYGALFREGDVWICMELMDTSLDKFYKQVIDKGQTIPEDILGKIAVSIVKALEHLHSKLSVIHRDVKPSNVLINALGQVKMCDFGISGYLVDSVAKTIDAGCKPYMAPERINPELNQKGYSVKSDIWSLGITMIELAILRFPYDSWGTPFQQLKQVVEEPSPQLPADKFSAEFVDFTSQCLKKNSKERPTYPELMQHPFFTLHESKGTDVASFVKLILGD
T6 sequence (O15111 whole entry): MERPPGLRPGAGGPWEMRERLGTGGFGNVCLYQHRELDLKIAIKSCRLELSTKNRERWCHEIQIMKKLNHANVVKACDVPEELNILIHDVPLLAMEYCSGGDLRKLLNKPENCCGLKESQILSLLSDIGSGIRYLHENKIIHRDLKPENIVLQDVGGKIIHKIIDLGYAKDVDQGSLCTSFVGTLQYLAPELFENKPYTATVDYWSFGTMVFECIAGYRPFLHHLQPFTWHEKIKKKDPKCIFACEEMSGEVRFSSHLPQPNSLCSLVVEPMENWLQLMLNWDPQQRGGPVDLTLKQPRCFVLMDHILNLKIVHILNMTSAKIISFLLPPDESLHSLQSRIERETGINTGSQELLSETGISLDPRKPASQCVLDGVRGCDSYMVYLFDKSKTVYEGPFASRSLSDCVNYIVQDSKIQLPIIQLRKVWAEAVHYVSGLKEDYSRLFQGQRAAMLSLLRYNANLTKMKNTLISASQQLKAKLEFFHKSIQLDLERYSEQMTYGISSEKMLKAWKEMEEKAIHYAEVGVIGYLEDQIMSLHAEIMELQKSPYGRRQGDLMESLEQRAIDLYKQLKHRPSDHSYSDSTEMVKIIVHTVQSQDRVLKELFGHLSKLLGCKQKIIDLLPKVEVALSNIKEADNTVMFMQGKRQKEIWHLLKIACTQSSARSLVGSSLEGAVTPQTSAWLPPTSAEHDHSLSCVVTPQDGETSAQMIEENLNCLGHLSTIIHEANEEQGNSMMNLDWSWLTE
T2 sequence (P15056 whole entry): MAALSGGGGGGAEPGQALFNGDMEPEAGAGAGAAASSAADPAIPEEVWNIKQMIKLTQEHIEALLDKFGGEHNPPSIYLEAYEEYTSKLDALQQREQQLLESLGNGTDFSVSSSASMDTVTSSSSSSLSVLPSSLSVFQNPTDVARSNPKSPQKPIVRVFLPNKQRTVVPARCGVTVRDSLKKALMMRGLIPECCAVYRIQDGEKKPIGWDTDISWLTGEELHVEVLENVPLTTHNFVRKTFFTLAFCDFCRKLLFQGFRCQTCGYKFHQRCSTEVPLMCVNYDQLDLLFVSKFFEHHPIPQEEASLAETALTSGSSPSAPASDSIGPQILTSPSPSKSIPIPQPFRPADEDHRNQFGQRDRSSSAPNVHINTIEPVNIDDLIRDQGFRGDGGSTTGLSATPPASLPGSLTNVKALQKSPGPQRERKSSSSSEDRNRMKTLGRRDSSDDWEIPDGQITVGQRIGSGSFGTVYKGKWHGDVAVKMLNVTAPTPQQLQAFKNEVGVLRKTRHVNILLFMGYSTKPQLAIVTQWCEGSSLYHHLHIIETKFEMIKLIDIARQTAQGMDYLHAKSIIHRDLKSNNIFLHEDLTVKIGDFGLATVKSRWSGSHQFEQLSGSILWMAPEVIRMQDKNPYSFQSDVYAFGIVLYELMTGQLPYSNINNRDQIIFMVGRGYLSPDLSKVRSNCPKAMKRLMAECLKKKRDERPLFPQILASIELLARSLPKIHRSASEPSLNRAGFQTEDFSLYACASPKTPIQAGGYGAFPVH

SMILES	Primary Metabolism Site [1]	Ki (GAK [2]) [µM]	IC50 (GAK [3]) [µM]	activity at 1 µM (BRAF) [%]	activity at 1 µM (CAMK1B) [%]	activity at 1 µM (EIF2AK1) [%]	activity at 1 µM (ERBB3) [%]	activity at 1 µM (IKK-alpha) [%]	activity at 1 µM (IRAK3) [%]	activity at 1 µM (MEK6) [%]	activity at 1 µM (PIP5K1C) [%]	activity at 1 µM (PRKCQ) [%]	activity at 1 µM [4] [%]	activity at 1 µM (AAK1) [%]	activity at 1 µM (GAK [5]; 35 at 1 µM, read-out: % inhibition) [%]	inhibition at 1 µM (GAK [5]; KinomeScan, screened at 1 μM, read-out: kinases inhibited at 1 μM: GAK) [%]	activity at 1 µM (STK16) [%]
COc1cc2nccc(Nc3cc(OC)c(OC)c(OC)c3)c2cc1OC [Compound 8]	Aniline	0.00054															
Brc1ccc2nccc(Nc3ccc4cn[nH]c4c3)c2c1 [Compound 35, 6-Bromo-N-(1H-indazol-6-yl)quinolin-4-amine]			1.4	92	92	92	100	100	100	100	95	88	100	100	10	90	98
